This note sets out measurements from US5939403A, “Keratan sulfate oligosaccharide fraction and pharmaceutical containing the same” (Seikagaku Corporation, priority 1994, dated 1999).

The experiment concerns submandibular lymph node. The experiment can be described thus: Apoptosis induction: TdT-mediated nick end labeling of submandibular lymph node. It counts as in vivo, MRL-lpr/lpr mice. Particulars: four weeks. The procedure: The PBS solution of the purified keratan sulfate disaccharide (III) which was prepared in Example 1 described above at a dose of 1 mg/kg, 5 mg/kg, or 25 mg/kg weight (hereinafter referred to as the 1 mg/kg administered group, the 5 mg/kg administered group, and the 25 mg/kg administered group, respectively), and PBS as the control (hereinafter sometimes referred to as the control group) was intramuscularly injected, respectively, to the femoral region of MRL-lpr/lpr mice seven times a week for four weeks. After that, the mice were subjected to anatomization to prepare the section specimens of submandibular lymph node (stained by the method of Gavrieli et al.; Terminal deoxynucleotidyl transferase (TdT)--mediated nick end labeling method; (J. Cell Biol., 119, 493-501 (1992))). In this staining method, apoptosis induced cells can be detected by detecting fragmented DNA ends. The specimens prepared was observed by a light microscope to determine the number of stained cells (the apoptosis induced cells; hereinafter sometimes referred to as the apoptosis cells) per unit area. In the figure, * and ** represent that they have the significant difference with p<0.05 and p<0.01, respectively (wherein "p" means a level of significance by the Bonferroni multiple comparative test). In each group, six mice were used.

Counter-ions that a name gives are not always drawn.

With `CC(=O)N[C@H]1C(O)O[C@H](COS(=O)(=O)O)[C@@H](O[C@@H]2O[C@H](COS(=O)(=O)O)[C@H](O)[C@H](O)[C@H]2O)[C@@H]1O` (stereo partly drawn) [keratan sulfate disaccharide (III), Gal(6S)β1-4GlcNAc(6S)], the “number of the apoptosis cells (FIG. 22)” value is, setting by setting: (5 mg/kg i.m.) “the number of the apoptosis cells increased significantly to the control group”; (any dose (1, 5, 25 mg/kg i.m.)) “an increase in the number of the apoptosis cells was observed”.
